Measured values reported in patent US11723894B2, “Combination product for the treatment of neurological and/or psychiatric disorders” (Consejo Superior de Investigaciones Cientificas (CSIC), priority 2017, dated 2023).

Tests used:
[1] = system: Human SH-SY5Y dopaminergic cells; assay: 6-OHDA in vitro model of Parkinson's Disease, nitrite quantification (Griess); type: cell-based; details: DMT 1 μM 1 h, then 6-OHDA 30 μM 24 h
microglial cells = assay: LPS-induced nitrite production (Griess) in primary microglial cultures; type: cell-based, rat; details: microglia
Procedure: Example 8: DMT, DET, DPT and 5-MeO-DMT administration in vitro prevents inflammation in rat primary glial cells. […] Rat primary glial cell cultures were prepared from the cerebral cortex of 3 day old rats which were dissected, dissociated, and incubated with 0.25% trypsin/EDTA at 37° C. for 1 h. After centrifugation, the pellet was washed three times with HBSS (Gibco) and the cells were plated in poly-D-lysine (20 μg/mL) pretreated flasks (75 cm2). After 7-10 days, the flasks were agitated in an orbital shaker for 4 h at 230 rpm at 37° C. and non-adherent microglial cells were isolated and plated. Then Dulbecco's Modified Eagle's Medium (DMEM) was added to the flasks, which were agitated in a horizontal shaker at 260 rpm at 37° C. After overnight agitation, the supernatant (oligodendrocytes and some remaining microglial cells) was removed, and astrocytes (adherent cells) were collected. The purity of the cultures was >95%, as determined by immunofluorescence analysis using an anti-glial fibrillary acidic protein (GFAP; clone G-A-5; Sigma-Aldrich) antibody to identify astrocytes, and an anti-Iba1 (Wako Catalog No. 019-19741) antibody to identify microglial cells. On attaining semiconfluence, cells were administered each of the test tryptamines at 1 μM or with the combination test tryptamine+Ritanserin (Rit at 1 μM) 2 h before exposure to lipopolysaccharide (LPS, 10 μg/mL; Sigma-Aldrich) and kept in the presence of each drug or drug combination for 24 h. In combination studies, Rit was added to medium 1h before administration of the corresponding tryptamine. Vehicle-treated cultures were used as a control. After the 24 h drug exposure period, cultures were tested to assess nitrite release. To quantify nitrite concentrations in culture medium, supernatants of glial cultures were collected and mixed with an equal volume of Griess reagent (Sigma-Aldrich). Samples were then incubated at room temperature for 15 min and absorbance was measured at 540 nm on a microplate reader. Results are expressed as the mean±SEM of six replications in three different experiments

[2] = system: subgranular zone of the hippocampus; assay: Long-term (21 days) in vivo neurogenesis in the subgranular zone of the hippocampus (BrdU/NeuN, BrdU/DCX); parameters: species or system C57BL/6 mice
Procedure: Adult male C57BL/6 mice (obtained from Charles River Labs, Barcelona, Spain) were injected every other day for 3 weeks with DMT (0.1 μg/animal), alone or in combination with the selective Sigma-1 BD1063 antagonist (BD, 0.2 μg/animal, Sigma, Catalog number SML0276), the mixed 5-HT2A/1A receptor antagonist methiothepin (Met, 0.2 μg/animal, Sigma, Catalog number M149), or the selective 5-HT1A receptor antagonist WAY100635 (WAY, 0.2 μg/animal, ABCAM catalog number ab120550). On day 1 of treatment, animals were intraperitoneally injected with the proliferation marker 5-bromo-2-deoxyuridine (BrdU, 50 mg/kg, Sigma, Catalog number B5002) and sacrificed on day 21. Following anesthesia, the animals were perfused transcardially with 4% paraformaldehyde, and the brains obtained and post-fixed in the same solution at 4-8° C. overnight. They were subsequently cryoprotected, frozen, and finally cut into 30 μm coronal sections in a cryostat. Free-floating sections were immunostained using immunofluorescence analysis. For BrdU detection, samples were first incubated with 2 M HCl for 30 minutes at 37° C. before blocking 1 hour in PBS containing 5% normal serum, 0.1 M lysine, and 0.1% Triton X-100. Sections were then incubated with anti-BrdU mouse monoclonal antibody (DAKO, Barcelona, Spain, Catalog number M0744) combined with a neuronal marker, anti-neuN rabbit antibody (Abcam, Cambridge, UK. Catalog number ABN78) or an anti-double courtin (DCX) goat antibody (Santa Cruz Biotech. USA) at 4° C. overnight, washed three times and incubated with Alexa Fluor-488 goat anti-mouse and Alexa 647-goat anti-rabbit or -horse anti-goat secondary antibodies (Molecular Probes, Madrid, Spain), respectively, for 1 hour at room temperature. After rinses, sections were mounted with Vectashield.

[3] = system: dopaminergic neurons of the Substantia nigra pars compacta; assay: 6-OHDA in vivo model of Parkinson's Disease (injection into Substantia nigra pars compacta); parameters: species or system C57BL/6 mice; details: 0.1 μg DMT co-injected with 5 μg 6-OHDA into SNpc, 3 weeks
Procedure: Example 10: DMT administration prevents dopaminergic cell death in a in vivo model of Parkinson's disease. Adult male C57BL/6 mice (8-12 weeks old) were used in this study. Animals were properly anaesthetized and placed in a stereotaxic apparatus (Kopf Instruments, CA). 6-OHDA (5 μg in […] PBS) was injected into the right side of the Substantia nigra pars compacta (SNpc) (coordinates from Bregma: posterior −3.2 mm; lateral +2.0 mm; ventral: +4.7 mm, according to the atlas of Paxinos and Franklin, The Mouse Brain in Stereotaxic Coordinates. 4. San Diego: Academic Press; 2012). Control animals of the same age were injected with PBS. A third group received an injection with 6-OHDA (5 μg) combined with DMT (0.1 μg) in […] PBS. Mice were then housed individually to recover and sacrificed 3 weeks later. At this point animals were anaesthetized and perfused transcardially with a 4% paraformaldehyde solution. The brains were removed, postfixed in the same solution at 4° C. overnight, cryoprotected in 20% sucrose, frozen, and 30 μm coronal sections were obtained in a cryostat. Free-floating sections were processed for double fluorescent immunohistochemistry. […] Neuronal integrity and specifically dopaminergic cell death was assessed by counting the percentage of TH^+ cells in the SNpc following a stereological approach. […] Images were analyzed using computer-assisted image analysis software (Soft Imaging System Corporation, Lakewood, Colo.). Results were expressed as the percentage of dopaminergic cell loss in the SNpc.

CN(C)CCc1c[nH]c2ccccc12 [DMT, N,N-dimethyltryptamine]
nitrite production brought about by 6-OHDA ([1]; vs 6-OHDA alone): significantly reduced
reduction of nitrite levels in the presence of Ritanserin ([1]; Rit 1 μM 1 h): preserved
reduction of LPS-induced nitrite in the presence of Rit (microglial cells; Rit 1 μM 1 h before tryptamine 1 μM, then LPS 10 μg/mL 24 h): maintained
LPS-induced nitrite increases (microglial cells; tryptamine 1 μM before LPS 10 μg/mL, 24 h, vs LPS alone): significantly reduced
double BrdU-NeuN stained cells (new neurons) ([2]; DMT 0.1 μg/animal every other day for 3 weeks, sacrificed day 21): increase
number of newly generated neurons as compared to basal ([2]; FIG. 6 legend, printed as after 5 days of DMT administration): doubled
average percentage of dopaminergic cell loss in the SNpc [3]: 10%
decrease in dopaminergic neurons and increase in activated astroglial and microglial cells (images) [3]: virtually absent
